Results on 3 compounds are retold here after EP0142075A2, “Purine derivatives, their preparation, and medicaments containing these compounds” (Dr. Karl Thomae GmbH, priority 1983, dated 1985).

Where two headings read alike, the source gives them in different places.

The nature of data set [1]: Acute toxicity (orientating), single oral dose in mice. The settings on record: mouse, in vivo, read-out: Orientierend akute Toxizität. As for the experimental part: (§1) Die akute Toxizität der zu untersuchenden Substanzen wurde orientierend an Gruppen von je 10 Mäusen nach oraler Gabe einer Einzeldosis von 300 mg/kg bestimmt (Beobachtungszeit: 14 Tage): […]
A further data set concerns Mäusen. The data set is described as above. The following applies: in vivo, po, 300 mg/kg. How it is done:
as §1

The mark [2] stands for this setting: mice, groups of 10, single oral dose of 300 mg/kg, observation time 14 days.

For `COC(=O)COc1ccc(-c2nc3ncncc3[nH]2)c(OC)c1` [Substanz B, 8-(2-Methoxy-4-methoxycarbonylmethoxyphenyl)-purin], the LD50 at 336 h in data set [1] (setting [2]) was more than 300 mg/kg. In addition, the Tieren gestorben with Mäusen is recorded as 0 von 10.
In the case of `COc1cc(OCC#N)ccc1-c1nc2cncnc2[nH]1` [Substanz C, 8-(2-Methoxy-4-cyanmethoxyphenyl)-purin], in data set [1] (po, 300 mg/kg), the LD50 at 336 h was more than 300 mg/kg. Moreover, the Tieren gestorben in the data set on Mäusen was > 300 mg/kg (O von 10 Tieren gestorben).
As to `C#CCOc1ccc(-c2nc3ncncc3[nH]2)c(OC)c1` [Substanz A, 8-(2-Methoxy-4-propargyloxyphenyl)-purin], the LD50 at 336 h in data set [1] (setting [2]) is more than 300 mg/kg. Also, in the data set on Mäusen, the Tieren gestorben came out at 0 von 10.
